Data reported in ChEMBL document CHEMBL1201862, “PubChem BioAssay data set” (2004).
Blank lines part the entries; values can stand above or below the compound they belong to. Calls of active or inactive are those of the source.

Experiments:
[1] = target: T1, Coagulation factor XII (Homo sapiens, UniProt P00748); format: functional;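 also: activated factor XIIa alpha cleaving a fluorogenic AMC peptide substrate; inhibitor potency from loss of enzyme activity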
T1 sequence (P00748 whole entry): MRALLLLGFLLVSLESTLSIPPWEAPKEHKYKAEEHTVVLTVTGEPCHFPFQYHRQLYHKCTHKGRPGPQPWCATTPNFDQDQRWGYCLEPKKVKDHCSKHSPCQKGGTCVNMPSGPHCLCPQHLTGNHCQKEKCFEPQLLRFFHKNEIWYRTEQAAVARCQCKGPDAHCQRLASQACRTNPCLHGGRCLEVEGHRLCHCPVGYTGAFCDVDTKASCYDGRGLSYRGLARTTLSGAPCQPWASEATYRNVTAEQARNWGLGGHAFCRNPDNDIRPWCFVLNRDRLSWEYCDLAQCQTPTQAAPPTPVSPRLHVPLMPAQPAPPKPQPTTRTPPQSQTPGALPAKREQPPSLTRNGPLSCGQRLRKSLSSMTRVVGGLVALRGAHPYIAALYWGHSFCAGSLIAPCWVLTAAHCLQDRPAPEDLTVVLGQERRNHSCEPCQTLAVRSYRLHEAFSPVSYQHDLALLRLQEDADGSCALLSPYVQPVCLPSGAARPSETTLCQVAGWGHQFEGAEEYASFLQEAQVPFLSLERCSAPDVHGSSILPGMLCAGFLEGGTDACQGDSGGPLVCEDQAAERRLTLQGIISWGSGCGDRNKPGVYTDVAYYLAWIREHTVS

[2] = target: T2, G-protein coupled receptor 35 (Homo sapiens, UniProt Q9HC97); experiment: SAR analysis of Antagonists of the GPR35 Receptor using an Image-Based Assay - Set 6. [Related pubchem assays (depositor defined):AID2013, AID2026]; format: functional
[3] = target: T3, Cannabinoid receptor 1 (Homo sapiens, UniProt P21554); experiment: SAR analysis of agonists of the Cannabinoid Receptor 1 using an Image-Based Assay - Set 4. [Related pubchem assays (depositor defined):AID2013, AID2026]; format: functional
[4] = target: T4, Cannabinoid receptor 2 (Homo sapiens, UniProt P34972); experiment: SAR analysis of agonists of the Cannabinoid Receptor 2 using an Image-Based Assay - Set 3. [Related pubchem assays (depositor defined):AID2013, AID2026]; format: functional
[5] = target: G-protein coupled receptor 55 (Homo sapiens, UniProt Q9Y2T6); experiment: SAR Analysis of Selective Antagonists of GPR55 using an Image-Based Assay - Set 4. [Related pubchem assays (depositor defined):AID2013, AID2026]; format: functional;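 also: antagonism of response to 5 µM lysophosphatidylinositol agonist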
[6] = target: T3, Cannabinoid receptor 1; experiment: SAR analysis of antagonists of the Cannabinoid Receptor 1 using an Image-Based Assay - Set 4. [Related pubchem assays (depositor defined):AID2013, AID2026]; format: functional
[7] = target: T2, G-protein coupled receptor 35; experiment: SAR analysis of Agonists of the GPR35 Receptor using an Image-Based Assay - Set 4. [Related pubchem assays (depositor defined):AID2013, AID2026]; format: functional
[8] = target: T4, Cannabinoid receptor 2; experiment: SAR analysis of antagonists of the Cannabinoid Receptor 2 using an Image-Based Assay - Set 3. [Related pubchem assays (depositor defined):AID2013, AID2026]; format: functional
[9] = target: T5, Short transient receptor potential channel 4 (Mus musculus, UniProt Q9QUQ5); experiment: mouse TRPC4 channel activators, dose response, cell-based, HEK293 TRPC4/mu-opioid, Fluo-4 calcium (AID 434937); format: functional
T5 sequence (Q9QUQ5 whole entry): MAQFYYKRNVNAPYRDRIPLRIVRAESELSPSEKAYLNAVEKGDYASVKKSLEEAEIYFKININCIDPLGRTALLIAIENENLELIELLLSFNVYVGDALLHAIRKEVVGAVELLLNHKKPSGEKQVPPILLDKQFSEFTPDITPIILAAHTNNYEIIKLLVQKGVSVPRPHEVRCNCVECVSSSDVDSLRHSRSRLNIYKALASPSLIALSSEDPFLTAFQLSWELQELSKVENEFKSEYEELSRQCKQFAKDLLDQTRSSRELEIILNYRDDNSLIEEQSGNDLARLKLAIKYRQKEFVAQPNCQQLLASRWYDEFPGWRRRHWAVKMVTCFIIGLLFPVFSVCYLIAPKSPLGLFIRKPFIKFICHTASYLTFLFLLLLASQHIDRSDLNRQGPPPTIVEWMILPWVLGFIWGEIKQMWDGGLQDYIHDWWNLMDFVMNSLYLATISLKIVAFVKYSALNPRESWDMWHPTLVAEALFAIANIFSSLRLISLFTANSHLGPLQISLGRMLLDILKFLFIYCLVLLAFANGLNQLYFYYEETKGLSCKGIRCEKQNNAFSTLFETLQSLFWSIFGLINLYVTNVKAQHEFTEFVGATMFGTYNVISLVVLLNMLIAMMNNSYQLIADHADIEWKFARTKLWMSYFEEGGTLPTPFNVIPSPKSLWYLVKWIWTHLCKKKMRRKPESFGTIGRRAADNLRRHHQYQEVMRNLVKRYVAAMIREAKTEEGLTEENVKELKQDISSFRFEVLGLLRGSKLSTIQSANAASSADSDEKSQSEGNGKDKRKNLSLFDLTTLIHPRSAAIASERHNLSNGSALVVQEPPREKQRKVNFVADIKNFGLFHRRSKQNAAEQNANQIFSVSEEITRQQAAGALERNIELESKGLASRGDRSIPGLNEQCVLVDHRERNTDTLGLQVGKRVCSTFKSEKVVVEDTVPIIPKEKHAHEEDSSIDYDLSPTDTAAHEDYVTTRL

[10] = Counterscreen for IDE inhibitors: Luminescence-based cell-based high throughput dose response assay to identify compounds that are cytotoxic to HEK cells. [Related pubchem assays: 434962 (Primary screen (IDE inhibitors in singlicate)), 449730 (Counterscreen (Cytotoxicity in triplicate)), 435028 (Confirmation (IDE inhibitors in triplicate)) …; format: functional; conditions: HEK293
[11] = target: Dual specificity tyrosine-phosphorylation-regulated kinase 1A (Rattus norvegicus, UniProt Q63470); format: biochemical, Homo sapiens
[12] = target: T6, Aminopeptidase N (Plasmodium falciparum FcB1/Columbia, UniProt O96935); experiment: P. falciparum M1AAP inhibitors, biochemical, fluorogenic H-Leu-NHMec substrate, 1536-well (AID 1445); design: species or system Plasmodium falciparum 3D7, 3D7
T6 sequence (O96935 whole entry): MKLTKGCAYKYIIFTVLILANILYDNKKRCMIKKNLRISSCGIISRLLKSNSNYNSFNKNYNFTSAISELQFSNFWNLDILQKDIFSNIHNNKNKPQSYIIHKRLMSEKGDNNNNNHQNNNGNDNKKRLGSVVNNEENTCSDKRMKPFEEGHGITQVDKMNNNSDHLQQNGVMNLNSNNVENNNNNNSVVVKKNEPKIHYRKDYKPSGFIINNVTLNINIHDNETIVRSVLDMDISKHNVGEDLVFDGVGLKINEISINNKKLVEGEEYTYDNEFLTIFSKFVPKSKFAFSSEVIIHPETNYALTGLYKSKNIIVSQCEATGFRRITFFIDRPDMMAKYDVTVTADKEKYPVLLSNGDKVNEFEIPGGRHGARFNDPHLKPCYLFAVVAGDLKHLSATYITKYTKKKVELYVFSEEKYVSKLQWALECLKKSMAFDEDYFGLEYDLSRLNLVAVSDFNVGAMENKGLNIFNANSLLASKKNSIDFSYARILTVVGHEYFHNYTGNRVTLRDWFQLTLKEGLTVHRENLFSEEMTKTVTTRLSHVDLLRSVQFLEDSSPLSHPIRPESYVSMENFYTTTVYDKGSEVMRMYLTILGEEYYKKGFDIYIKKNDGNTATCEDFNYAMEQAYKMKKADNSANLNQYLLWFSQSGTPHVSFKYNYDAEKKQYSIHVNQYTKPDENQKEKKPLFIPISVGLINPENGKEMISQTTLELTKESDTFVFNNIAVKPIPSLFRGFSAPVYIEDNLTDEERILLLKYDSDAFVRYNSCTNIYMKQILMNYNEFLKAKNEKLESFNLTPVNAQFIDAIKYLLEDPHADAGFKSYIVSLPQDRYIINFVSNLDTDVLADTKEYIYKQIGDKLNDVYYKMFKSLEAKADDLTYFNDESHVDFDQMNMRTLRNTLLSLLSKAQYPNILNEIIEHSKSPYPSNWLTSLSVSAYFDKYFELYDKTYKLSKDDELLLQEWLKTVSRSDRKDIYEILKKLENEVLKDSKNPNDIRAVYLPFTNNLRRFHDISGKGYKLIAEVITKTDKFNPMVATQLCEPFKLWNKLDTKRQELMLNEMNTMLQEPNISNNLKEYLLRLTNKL

[13] = target: Ion channel NompC (Danio rerio, UniProt Q7T1G6); experiment: Dose response cell-based high-throughput screening assay for agonists of the transient receptor potential channel N1 (TRPN1). [Related pubchem assays (depositor defined):AID1424, AID1448]; format: functional
[14] = target: Mucolipin-3 (Homo sapiens, UniProt Q8TDD5); experiment: Fluorescence counterscreen assay for […] agonists: dose response cell-based high-throughput screening assay to identify agonists of the transient receptor potential channel ML3 (TRPML3). [Related pubchem assays: 1424, 1448 ]; format: functional
[15] = target: T7, Insulin-degrading enzyme (Homo sapiens, UniProt P14735); experiment: Dose Response: Fluorescence polarization-based cell-based high throughput dose response assay for inhibitors of insulin-degrading enzyme (IDE). [Related pubchem assays: 434962 (Primary screen (IDE inhibitors in singlicate)), 449730 (Counterscreen (Cytotoxicity in triplicate)), 435028 (Confirmation (IDE inhibitors in triplicate)), 434984 (Summary …; format: functional
T7 sequence (P14735 whole entry): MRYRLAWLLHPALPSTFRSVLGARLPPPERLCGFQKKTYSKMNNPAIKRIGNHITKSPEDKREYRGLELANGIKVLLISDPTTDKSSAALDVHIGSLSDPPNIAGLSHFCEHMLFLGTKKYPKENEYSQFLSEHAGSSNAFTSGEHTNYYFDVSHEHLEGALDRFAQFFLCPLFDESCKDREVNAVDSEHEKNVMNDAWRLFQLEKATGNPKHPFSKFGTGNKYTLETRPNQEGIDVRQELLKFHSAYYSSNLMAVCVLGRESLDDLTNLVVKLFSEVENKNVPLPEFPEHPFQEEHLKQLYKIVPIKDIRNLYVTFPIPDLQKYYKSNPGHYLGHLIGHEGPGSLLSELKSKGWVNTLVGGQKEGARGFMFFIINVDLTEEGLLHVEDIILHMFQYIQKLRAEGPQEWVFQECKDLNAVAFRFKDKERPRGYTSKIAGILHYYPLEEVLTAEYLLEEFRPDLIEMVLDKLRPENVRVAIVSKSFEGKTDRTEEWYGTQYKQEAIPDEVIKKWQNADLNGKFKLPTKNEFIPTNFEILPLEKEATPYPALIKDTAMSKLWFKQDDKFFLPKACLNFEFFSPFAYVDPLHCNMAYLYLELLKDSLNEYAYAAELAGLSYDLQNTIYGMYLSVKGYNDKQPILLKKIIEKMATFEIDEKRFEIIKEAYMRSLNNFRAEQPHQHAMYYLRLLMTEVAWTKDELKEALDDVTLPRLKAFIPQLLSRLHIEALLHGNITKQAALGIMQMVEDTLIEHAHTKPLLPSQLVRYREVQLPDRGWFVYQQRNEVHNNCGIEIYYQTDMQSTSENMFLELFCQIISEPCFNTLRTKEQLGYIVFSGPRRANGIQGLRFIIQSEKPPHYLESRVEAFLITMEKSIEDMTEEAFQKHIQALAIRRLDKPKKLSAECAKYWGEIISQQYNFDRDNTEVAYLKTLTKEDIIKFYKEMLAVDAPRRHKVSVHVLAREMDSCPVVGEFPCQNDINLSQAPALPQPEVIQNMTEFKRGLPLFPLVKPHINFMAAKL

[16] = target: T8, Kappa-type opioid receptor (Homo sapiens, UniProt P41145); experiment: SAR analysis of small molecule antagonists of the kappa opioid receptor via a luminescent beta-arrestin assay - Set 5. [Related pubchem assays (depositor defined):AID1778, AID1785]; format: functional
[17] = target: T8, Kappa-type opioid receptor; experiment: SAR analysis of small molecule antagonists of the kappa opioid receptor via a luminescent beta-arrestin assay - Set 4. [Related pubchem assays (depositor defined):AID1777, AID1778, AID1785, AID1786, AID1966, AID2133, AID2136, AID2285]; format: functional
[18] = target: Intestinal-type alkaline phosphatase (Homo sapiens, UniProt P09923); experiment: human intestinal alkaline phosphatase activators, dose response, biochemical, luminescence, uHTS hits (AID 463120); format: functional
Intestinal-type alkaline phosphatase, sequence (P09923 whole entry): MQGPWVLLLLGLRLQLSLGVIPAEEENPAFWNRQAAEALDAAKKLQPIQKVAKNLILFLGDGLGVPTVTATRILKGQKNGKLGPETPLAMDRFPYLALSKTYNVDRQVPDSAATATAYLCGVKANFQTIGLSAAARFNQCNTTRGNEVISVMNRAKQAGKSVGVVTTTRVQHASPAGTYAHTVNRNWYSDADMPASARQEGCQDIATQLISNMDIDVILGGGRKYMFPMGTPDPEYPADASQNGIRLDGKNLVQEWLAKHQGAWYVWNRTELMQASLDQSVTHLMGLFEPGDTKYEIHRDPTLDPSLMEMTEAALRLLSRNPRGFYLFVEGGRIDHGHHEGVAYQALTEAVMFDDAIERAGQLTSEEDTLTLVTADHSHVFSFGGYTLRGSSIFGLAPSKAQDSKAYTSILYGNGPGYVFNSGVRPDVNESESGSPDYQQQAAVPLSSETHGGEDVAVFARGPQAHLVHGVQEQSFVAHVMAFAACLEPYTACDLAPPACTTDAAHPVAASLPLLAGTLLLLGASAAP

T8 sequence (P41145 whole entry): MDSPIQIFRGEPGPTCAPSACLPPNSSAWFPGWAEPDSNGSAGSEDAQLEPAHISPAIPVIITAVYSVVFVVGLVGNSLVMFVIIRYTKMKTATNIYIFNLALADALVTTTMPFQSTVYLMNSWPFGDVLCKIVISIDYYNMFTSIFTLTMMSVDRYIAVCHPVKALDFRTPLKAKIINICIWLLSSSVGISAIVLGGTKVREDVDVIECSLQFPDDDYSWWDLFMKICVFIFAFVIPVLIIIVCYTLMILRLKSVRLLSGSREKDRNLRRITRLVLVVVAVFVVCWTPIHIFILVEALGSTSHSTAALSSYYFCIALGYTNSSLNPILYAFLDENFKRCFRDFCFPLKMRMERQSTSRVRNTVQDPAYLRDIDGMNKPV
T4 sequence (P34972 whole entry): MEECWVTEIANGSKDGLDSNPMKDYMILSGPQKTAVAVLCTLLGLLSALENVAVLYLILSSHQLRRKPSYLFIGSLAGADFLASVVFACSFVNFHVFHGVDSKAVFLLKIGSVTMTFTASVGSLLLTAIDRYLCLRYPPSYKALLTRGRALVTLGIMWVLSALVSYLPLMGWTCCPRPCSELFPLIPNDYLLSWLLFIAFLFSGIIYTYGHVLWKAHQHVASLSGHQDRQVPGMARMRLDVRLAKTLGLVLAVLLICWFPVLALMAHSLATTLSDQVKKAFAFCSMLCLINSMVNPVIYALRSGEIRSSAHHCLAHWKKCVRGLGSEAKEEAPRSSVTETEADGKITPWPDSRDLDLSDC
T3 sequence (P21554 whole entry): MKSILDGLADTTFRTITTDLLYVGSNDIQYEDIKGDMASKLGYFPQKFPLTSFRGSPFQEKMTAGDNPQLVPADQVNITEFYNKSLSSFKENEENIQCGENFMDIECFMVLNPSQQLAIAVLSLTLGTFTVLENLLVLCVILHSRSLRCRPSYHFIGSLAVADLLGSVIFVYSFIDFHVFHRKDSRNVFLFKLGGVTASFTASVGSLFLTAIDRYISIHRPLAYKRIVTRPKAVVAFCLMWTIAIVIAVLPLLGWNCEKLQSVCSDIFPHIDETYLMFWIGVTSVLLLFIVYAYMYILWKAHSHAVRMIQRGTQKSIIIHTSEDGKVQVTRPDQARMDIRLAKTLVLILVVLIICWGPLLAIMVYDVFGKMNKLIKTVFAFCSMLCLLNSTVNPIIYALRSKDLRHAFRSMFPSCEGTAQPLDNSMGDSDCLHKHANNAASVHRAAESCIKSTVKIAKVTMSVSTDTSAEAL
T2 sequence (Q9HC97 whole entry): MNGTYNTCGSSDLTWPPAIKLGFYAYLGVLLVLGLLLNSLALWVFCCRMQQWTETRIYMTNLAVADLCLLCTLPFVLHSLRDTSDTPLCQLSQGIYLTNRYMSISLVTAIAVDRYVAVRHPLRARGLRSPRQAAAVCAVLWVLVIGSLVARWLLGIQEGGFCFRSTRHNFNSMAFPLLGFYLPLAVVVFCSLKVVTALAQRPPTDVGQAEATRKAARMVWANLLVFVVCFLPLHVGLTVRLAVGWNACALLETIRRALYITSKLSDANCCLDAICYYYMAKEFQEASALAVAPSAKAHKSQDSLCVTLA
G-protein coupled receptor 55, sequence (Q9Y2T6 whole entry): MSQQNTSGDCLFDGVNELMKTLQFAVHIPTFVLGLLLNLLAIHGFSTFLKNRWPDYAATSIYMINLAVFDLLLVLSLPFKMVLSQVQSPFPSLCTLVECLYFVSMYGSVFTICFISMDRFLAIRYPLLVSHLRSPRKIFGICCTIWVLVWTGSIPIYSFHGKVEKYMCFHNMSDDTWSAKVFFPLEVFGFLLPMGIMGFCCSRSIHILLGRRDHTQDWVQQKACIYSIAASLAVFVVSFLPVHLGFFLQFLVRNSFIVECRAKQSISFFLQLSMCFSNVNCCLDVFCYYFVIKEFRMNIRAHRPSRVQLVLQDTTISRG
Ion channel NompC, sequence (Q7T1G6 whole entry): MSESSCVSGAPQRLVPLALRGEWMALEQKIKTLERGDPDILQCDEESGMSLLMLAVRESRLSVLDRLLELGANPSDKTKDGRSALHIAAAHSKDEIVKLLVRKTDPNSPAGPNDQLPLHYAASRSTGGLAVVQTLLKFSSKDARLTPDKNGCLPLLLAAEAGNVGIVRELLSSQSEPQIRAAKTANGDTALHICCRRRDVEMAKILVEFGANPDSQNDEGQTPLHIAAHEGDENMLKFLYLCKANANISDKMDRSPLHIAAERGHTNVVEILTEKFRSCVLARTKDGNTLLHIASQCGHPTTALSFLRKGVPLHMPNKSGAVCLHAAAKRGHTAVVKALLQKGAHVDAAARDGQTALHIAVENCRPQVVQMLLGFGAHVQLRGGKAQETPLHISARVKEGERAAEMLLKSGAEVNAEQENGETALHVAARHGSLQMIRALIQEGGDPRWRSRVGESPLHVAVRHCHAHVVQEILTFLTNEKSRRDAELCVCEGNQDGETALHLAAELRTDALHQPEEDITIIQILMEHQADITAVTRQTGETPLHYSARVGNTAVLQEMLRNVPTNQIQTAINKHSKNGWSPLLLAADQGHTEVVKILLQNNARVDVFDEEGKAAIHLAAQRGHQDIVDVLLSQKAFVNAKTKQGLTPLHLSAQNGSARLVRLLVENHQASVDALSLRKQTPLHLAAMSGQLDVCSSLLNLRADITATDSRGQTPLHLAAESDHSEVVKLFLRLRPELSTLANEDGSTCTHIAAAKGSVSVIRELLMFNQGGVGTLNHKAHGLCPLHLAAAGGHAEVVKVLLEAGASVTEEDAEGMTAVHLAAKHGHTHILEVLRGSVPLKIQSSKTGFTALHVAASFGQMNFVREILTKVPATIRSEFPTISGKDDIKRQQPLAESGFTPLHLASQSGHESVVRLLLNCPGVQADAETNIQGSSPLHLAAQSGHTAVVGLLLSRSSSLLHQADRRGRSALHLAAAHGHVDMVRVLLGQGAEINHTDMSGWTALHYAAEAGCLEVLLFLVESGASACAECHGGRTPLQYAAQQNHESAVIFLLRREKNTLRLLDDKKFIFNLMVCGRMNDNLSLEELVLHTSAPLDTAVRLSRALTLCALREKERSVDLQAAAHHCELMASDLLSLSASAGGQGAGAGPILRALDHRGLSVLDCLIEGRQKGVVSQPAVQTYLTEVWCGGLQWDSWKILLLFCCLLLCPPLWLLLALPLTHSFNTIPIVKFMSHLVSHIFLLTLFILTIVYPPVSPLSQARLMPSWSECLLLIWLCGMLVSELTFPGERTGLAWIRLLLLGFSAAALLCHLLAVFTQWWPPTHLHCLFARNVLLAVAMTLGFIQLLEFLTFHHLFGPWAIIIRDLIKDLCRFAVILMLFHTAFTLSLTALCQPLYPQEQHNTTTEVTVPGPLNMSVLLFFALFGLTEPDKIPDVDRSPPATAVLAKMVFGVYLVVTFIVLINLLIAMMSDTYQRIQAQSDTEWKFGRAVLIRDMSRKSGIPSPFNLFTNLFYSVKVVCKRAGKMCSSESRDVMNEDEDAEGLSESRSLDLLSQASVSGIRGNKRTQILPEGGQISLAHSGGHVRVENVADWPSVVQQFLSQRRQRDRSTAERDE
Mucolipin-3, sequence (Q8TDD5 whole entry): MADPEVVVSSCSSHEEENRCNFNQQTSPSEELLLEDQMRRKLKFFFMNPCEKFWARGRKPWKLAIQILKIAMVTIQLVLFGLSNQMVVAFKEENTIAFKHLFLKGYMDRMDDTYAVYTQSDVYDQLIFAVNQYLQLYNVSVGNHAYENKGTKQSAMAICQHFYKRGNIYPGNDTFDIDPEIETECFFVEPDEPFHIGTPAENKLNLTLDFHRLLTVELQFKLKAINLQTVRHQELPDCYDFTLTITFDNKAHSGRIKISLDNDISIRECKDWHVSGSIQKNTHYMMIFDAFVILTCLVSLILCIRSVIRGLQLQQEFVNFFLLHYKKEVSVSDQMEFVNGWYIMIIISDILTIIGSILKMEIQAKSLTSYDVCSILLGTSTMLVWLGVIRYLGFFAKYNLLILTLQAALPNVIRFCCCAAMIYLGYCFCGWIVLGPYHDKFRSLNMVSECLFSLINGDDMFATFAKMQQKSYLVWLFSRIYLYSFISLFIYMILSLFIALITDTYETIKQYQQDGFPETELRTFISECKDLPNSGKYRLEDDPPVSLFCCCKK

IC50 [2]: > 32 µM (inactive) | EC50 [3]: > 32 µM (inactive) | EC50 [4]: > 32 µM (inactive) | IC50 [5]: 9.55 µM (active) | IC50 [6]: 7.11 µM (active) | EC50 [7]: > 32 µM (inactive) | IC50 [8]: > 32 µM (inactive)
Structure (SMILES): COc1ccc(C2(C(=O)N3CCC(n4nc(-c5ccccc5)oc4=O)CC3)CC2)cc1

IC50 [16]: > 20 µM (inactive) | IC50 [17]: > 20 µM (inactive)
Structure (SMILES): O=C(Cn1c(=O)c2cccn2c2cc(Br)cnc21)NCCCN1CCN(c2ccccc2)CC1

IC50 [1]: > 50 µM (inactive)
Structure (SMILES): Cc1c(C(=O)C2=C(O)C(=O)N(CCN3CCOCC3)C2c2cccs2)cnn1-c1ccccc1 (centres undefined)

The next lines start with the compound.

Structure (SMILES): COc1cc(NC(=O)c2cc3nc(C4CC4)cc(C(F)(F)F)n3n2)c(OC)cc1Cl
IC50 [1]: > 50 µM (inactive)

Structure (SMILES): CCCN(CCC)CCCNC(=O)CNC(=O)c1nn(-c2ccc(OC)cc2)c(=O)c2ccccc12
EC50 [9]: 3.76 µM (active)

Structure (SMILES): O=C(O)c1cccc(-c2ccc(/C=N/Nc3ccc([N+](=O)[O-])cc3)o2)c1
IC50 [10]: > 55.6 µM (not active) | AC50 [11]: 6.38 µM (active) | IC50 [12]: 27.3 µM (active) | EC50 [13]: 12 µM (inactive) | EC50 [14]: > 29.9 µM (not active) | IC50 [15]: > 55.9 µM (not active)

Structure (SMILES): O=C(Cn1c(-c2ccccc2)c[n+]2ccsc12)c1ccc(Br)cc1
EC50 [9]: 0.668 µM (active)

Structure (SMILES): Cc1nc(N2CCN(C(=O)c3ccc4c(c3)nc(C)n4C)CC2)c2c3c(sc2n1)CC(C)CC3 (centres undefined)
IC50 [2]: > 32 µM (inactive) | EC50 [3]: > 32 µM (inactive) | EC50 [4]: 26.8 µM (inactive) | IC50 [5]: > 32 µM (inactive) | IC50 [6]: 19.6 µM (inactive) | EC50 [7]: > 32 µM (inactive) | IC50 [8]: > 32 µM (inactive)

Structure (SMILES): CC(C)N(CCNC(=O)c1ccc(CNS(=O)(=O)Cc2ccccc2)cc1)Cc1ccccc1
IC50 [16]: 3.5 µM (active) | IC50 [17]: 10.3 µM (inactive)

Structure (SMILES): O=C(N/N=C/c1cccc([N+](=O)[O-])c1)c1nc(O)c2ccccc2n1
EC50 [18]: 8.34 µM (active)
